Results published in patent publication US12233045B2, “Therapeutic agent for treating bradyarrhythmia” (OSAKA UNIVERSITY, priority 2018, dated 2025).
Changes are numbered by the printed parent chain.

What was measured:
KCNJ3 N83H KACh channel = molecular target: T1, KCNJ3 N83H KACh channel (Homo sapiens, UniProt P48544+P48549, N83H); assay: two-electrode voltage clamp, KACh channel expressed in Xenopus laevis oocytes (N83H mutant); assay type: cell-based; conditions: for inhibition of the N83H mutant compared with the WT KACh channel: N83H vs WT; for inhibitory effect on the KCNJ3 N83H KACh channel: two-electrode voltage clamp
T1 construct: expressed in transfected cells; host or cells: Xenopus laevis oocytes (cRNA injection)
T1 sequence (P48549 1-501 N83H): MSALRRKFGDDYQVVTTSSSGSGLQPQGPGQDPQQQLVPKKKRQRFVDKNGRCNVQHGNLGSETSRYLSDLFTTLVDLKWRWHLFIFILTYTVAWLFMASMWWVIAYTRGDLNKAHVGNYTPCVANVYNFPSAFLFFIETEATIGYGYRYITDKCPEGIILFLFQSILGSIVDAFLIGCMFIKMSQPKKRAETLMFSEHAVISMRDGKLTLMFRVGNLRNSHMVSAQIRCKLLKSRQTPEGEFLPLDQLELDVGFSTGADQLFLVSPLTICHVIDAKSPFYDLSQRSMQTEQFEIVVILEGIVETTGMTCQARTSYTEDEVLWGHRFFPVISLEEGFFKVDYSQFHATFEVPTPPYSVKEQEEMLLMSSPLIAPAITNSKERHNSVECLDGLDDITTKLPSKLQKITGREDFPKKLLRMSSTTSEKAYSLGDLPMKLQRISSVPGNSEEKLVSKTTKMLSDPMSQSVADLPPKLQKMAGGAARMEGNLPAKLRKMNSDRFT
T1 sequence (P48544 1-419): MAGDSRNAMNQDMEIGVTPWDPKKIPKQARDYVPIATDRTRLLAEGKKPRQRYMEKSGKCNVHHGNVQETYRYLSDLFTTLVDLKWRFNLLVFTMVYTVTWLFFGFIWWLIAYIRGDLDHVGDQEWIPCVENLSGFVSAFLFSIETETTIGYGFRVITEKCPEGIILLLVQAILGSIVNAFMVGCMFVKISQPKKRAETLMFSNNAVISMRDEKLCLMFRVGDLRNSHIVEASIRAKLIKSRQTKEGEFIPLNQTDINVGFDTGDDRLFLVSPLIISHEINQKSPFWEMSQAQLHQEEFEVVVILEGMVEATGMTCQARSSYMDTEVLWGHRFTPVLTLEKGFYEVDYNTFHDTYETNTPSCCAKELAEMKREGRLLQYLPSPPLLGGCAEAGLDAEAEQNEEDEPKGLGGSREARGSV
Excerpt: (§1) By co-expressing with […] subunits of G protein, a whole cell current was able to be directly measured via the activated KACh channel.
The coding sequence of human KCNJ3 WT was obtained by amplifying a human KCNJ3 cDNA clone (commercially available from Invitrogen) by PCR, and subcloning it into a pCS2+ vector (commercially available from Addgene). The c.247A>C mutation providingKCNJ3 N83H was introduced by site-directed mutagenesis through PCR. Similarly, the human KCNJ5 coding sequence was obtained by amplifying a human KCNJ5 cDNA clone (commercially available from Invitrogen) by PCR and subcloning it into a pCS2+ vector. The cRNAs of KCNJ3 WT, KCNJ3 N83H and KCNJ5 were synthesized from linearized cDNA using an mMESSAGE mMACHINE kit (commercially available from Life Technologies) vitro transcription. cRNA of KCNJ3 N83H or KCNJ3 WT and cRNA of wild type KCNJ5 were injected into Xenopus laevis oocytes together with cRNA of β and γ subunits of G protein, and incubated in an ND96 solution at 18° C. for 48 to 96 hours.
For the extracellular fluid, the pH of a test bath solution containing 40 mM potassium chloride, 50 mM sodium chloride, 3 mM magnesium chloride M, 0.15 mM niflumic acid, and 5 mMHEPES was adjusted to 7.4 with potassium hydroxide.
(§2) The whole cell current via the expressed KACh channel was measured by a two-electrode voltage clamp method using a GeneClamp 500 amplifier (commercially available from Molecular Devices). The compound (II) dissolved in DMSO, and a perfusate was prepared so that the final concentration was 0.001, 0.01, 0.03, 0.1, 1, and 10 μM. The perfusate containing the compound (II) with a low concentration was added when the amount of current was almost steady, and the amount of current was then recorded while replacing it with a perfusate with a high concentration in the same manner. When the recording was ended, Ba^2+ (3 mM) was added, and the intrinsic leak current was measured. The measured data was analyzed using Clampfit 10.2 (commercially available from Molecular Devices). The IC50 value was calculated using GraphPad Prism version 5.00 (commercially available from GraphPad Software).

KCNJ3 WT KACh channel [1] = molecular target: T2, KCNJ3 WT KACh channel (Homo sapiens, UniProt P48544+P48549); assay: two-electrode voltage clamp, KACh channel expressed in Xenopus laevis oocytes (wild type); assay type: cell-based
T2 construct: expressed in transfected cells; host or cells: Xenopus laevis oocytes (cRNA injection)
T2 sequence (P48549 1-501): T1 sequence (P48549 1-501 N83H) with H83N
T2 sequence (P48544 1-419): T1 sequence (P48544 1-419)
Excerpt: as §1
The coding sequence of human KCNJ3 WT was obtained by amplifying a human KCNJ3 cDNA clone (commercially available from Invitrogen) by PCR, and subcloning it into a pCS2+ vector (commercially available from Addgene). The c.247A>C mutation providingKCNJ3 N83H was introduced by site-directed mutagenesis through PCR. Similarly, the human KCNJ5 coding sequence was obtained by amplifying a human KCNJ5 cDNA clone (commercially available from Invitrogen) by PCR and subcloning it into a pCS2+ vector. […]
as §2, with “The compound (II) dissolved in DMSO, and a perfusate was prepared so that the final concentration was 0.001, 0.01, 0.03, 0.1, 1, and 10 μM.” left out

[2] = system: KCNJ3 N83H mutant zebrafish; assay: transgenic zebrafish model, heart rate and pulsation rhythm analysis (KCNJ3 N83H); assay type: in vivo, zebrafish (Danio rerio); conditions: for effect on heart rate and bradyarrhythmia: 100 nM in 0.03% sea salt aqueous solution, after 1 hour, 2 day old fry; for effect on sinus arrest / atrioventricular block caused by the N83H mutation: 100 nM, 1 hour after application
Experimental: (§3) As a comparative example, zebrafish for KCNJ3 WT expression was also prepared in the same manner.
Transgenic zebrafish was prepared by a transposon transfer system using transposon Tol2. Since the cardiac KACh channel was expressed in the sinoatrial node, atrioventricular node, and atrial muscle, a gene construct in which three genes of mCherry were linked with a 2A peptide was prepared so that human KCNJ3 WT or N83H and human KCNJ5, and additionally gene introduction thereof were able to be determined under a fluorescence microscope under the control of the atrial myosin heavy chain (amhc) promoter, which expressed a target gene in zebrafish in an atrial-specific manner (FIG. 3). Next, a small amount of mRNA of the transposase encoded by Tol2 gene and this construct were simultaneously injected into the fertilized egg. When the adult fish prepared in this manner were crossed with wild type zebrafish, fish whose germline transmission was confirmed by generating fry positive for mCherry in the atrium under a fluorescence microscope were used as an F0 founder. When this F0 founder was crossed with wild type zebrafish hspGFF3A, which expressed GFP in both the ventricle and the atrium (Proceedings of the National Academy of Sciences of the United States of America. 2008; 105:1255-1260.), the heart rate and the heart pulsation rhythm were analyzed using 2 day old F1 transgenic zebrafish fry which expressed GFP in the ventricle and GFP and mCherry in the atrium (FIG. 4). Specifically, zebrafish fry was fixed on a glass bottom dish with a diameter of 35 mm with a 0.5% low-melting-point agarose gel, and the fry heart in a 0.03% sea salt aqueous solution was observed under a fluorescence microscope. Based on the video of the heart beat acquired by the camera attached to the fluorescence microscope, detailed analysis of the heart rate and pulsation rhythm was performed using original M mode analysis software (The Journal of clinical investigation. 2007, 117:2812-2824.). The heart rate was measured by the pulsation of the sinus venosus part including the sinus node. Since the expression level of mCherry in the atrium was not different between KCNJ3 WT zebrafish and KCNJ3 N83H mutant zebrafish, the expression level of the KACh channel gene was considered to be the same in both cases. In the KCNJ3 N83H mutant zebrafish, significant atrial enlargement and a bradyarrhythmia phenotype similar to human cases (sinus arrest, sinus bradycardia, sinoatrial block, atrioventricular block) were observed (FIG. 5). Next, the 0.03% sea salt aqueous solution was replaced with a 0.03% sea salt aqueous solution containing the 100 nM compound (II), and the heart beat after 1 hour was analyzed in the same manner.

[3] = molecular target: T3, KCNJ5 WT/W101C KACh channel (Homo sapiens, UniProt P48544+P48549, W101C); assay: two-electrode voltage clamp, W101C heterozygous mutant KACh channel in Xenopus laevis oocytes; assay type: cell-based; conditions: 0.01, 0.1 and 1 μM
T3 construct: expressed in transfected cells; host or cells: Xenopus laevis oocytes (cRNA injection)
T3 sequence (P48544 1-419 W101C): T1 sequence (P48544 1-419) with W101C
T3 sequence (P48544 1-419): T1 sequence (P48544 1-419)
T3 sequence (P48549 1-501): T1 sequence (P48549 1-501 N83H) with H83N
Experimental: In Xenopus laevis oocytes, in order to imitate autosomal dominant inheritance heterozygous, equimolar amounts of cRNAs of wild type KCNJ5 (KCNJ5 WT) and KCNJ5 W101C were injected together with cRNA of wild type KCNJ3 (KCNJ3 WT), the W101C heterozygous mutant KACh channel was expressed, electrodes were inserted, and the channel activity was confirmed by a two-electrode voltage clamp method.
The above human KCNJ5 cDNA clone (commercially available from Invitrogen) was amplified by PCR and subcloned it into a pCS2+ vector (commercially available from Addgene) to prepare a template, and the c.303G>C mutation providing KCNJ5 W101C was introduced by site-directed mutagenesis through PCR. […]
The whole cell current via the expressed KACh channel was measured by a two-electrode voltage clamp method using a GeneClamp 500 amplifier (commercially available from Molecular Devices). […] The perfusate containing the compound (I) with a low concentration was added when the current amplitude was almost steady, and the current amplitude was then recorded while replacing it with a perfusate with a high concentration in the same manner. When the recording was ended, Ba^2+ (3 mM) was added, and the intrinsic leak current was measured.

KCNJ3 WT zebrafish = assay: transgenic zebrafish model, heart rate analysis (KCNJ3 WT); assay type: in vivo, zebrafish (Danio rerio); conditions: 100 nM, after 1 hour
Experimental: as §3
Transgenic zebrafish was prepared by a transposon transfer system using transposon Tol2. Since the cardiac KACh channel was expressed in the sinoatrial node, atrioventricular node, and atrial muscle, a gene construct in which three genes of mCherry were linked with a 2A peptide was prepared so that human KCNJ3 WT or N83H and human KCNJ5, and additionally gene introduction thereof were able to be determined under a fluorescence microscope under the control of the atrial myosin heavy chain (amhc) promoter, which expressed a target gene in zebrafish in an atrial-specific manner (FIG. 3). […] When the adult fish prepared in this manner were crossed with wild type zebrafish, fish whose germline transmission was confirmed by generating fry positive for mCherry in the atrium under a fluorescence microscope were used as an F0 founder. When this F0 founder was crossed with wild type zebrafish hspGFF3A, which expressed GFP in both the ventricle and the atrium (Proceedings of the National Academy of Sciences of the United States of America. 2008; 105:1255-1260.), the heart rate and the heart pulsation rhythm were analyzed using 2 day old F1 transgenic zebrafish fry which expressed GFP in the ventricle and GFP and mCherry in the atrium (FIG. 4). […]

KCNJ3 WT KACh channel [4] = molecular target: T2, KCNJ3 WT KACh channel; conditions: literature (Jin W, Lu Z. Biochemistry 1999); cited from earlier work

Cc1cc(CO)nc2cc3c(cc12)OC(C)(C)[C@H](O)[C@H]3NCCc1ccccc1 [compound (I), (3R4S)-7-hydroxymethyl-2,2,9-trimethyl-4-(phenethylamino)-3,4-dihydro-2H-pyra no[2,3-g]quinoline-3-ol]
inhibition of the N83H mutant compared with the WT KACh channel (KCNJ3 N83H KACh channel): stronger on N83H than WT | inhibitory effect on the KCNJ3 N83H KACh channel (KCNJ3 N83H KACh channel): exhibited the inhibitory effect | inhibitory effect on the KCNJ3 WT KACh channel (KCNJ3 WT KACh channel [1]; two-electrode voltage clamp): exhibited the inhibitory effect | effect on heart rate and bradyarrhythmia [2]: increasing the heart rate and improving bradyarrhythmia | effect on sinus arrest / atrioventricular block caused by the N83H mutation [2]: improved the sinus arrest and atrioventricular block | inhibitory effect on the KCNJ5 WT/W101C KACh channel [3]: concentration-dependent inhibitory effect

CC1(C)Oc2cc([N+](=O)[O-])c(N)cc2[C@H](NCCc2ccccc2)[C@H]1O [compound (II), (3R,4S)-6-amino-3,4-di hydro-2,2-dimethyl-7-nitro-4-(2-phenethylamino)-2H-1-benzopyran-3-ol]
IC50 (KCNJ3 N83H KACh channel; N83H mutant, n=14, p<0.01 vs wild type, read-out: IC50 value, inhibition of whole cell current): 50 ± 12 nM | inhibition of the N83H mutant compared with the WT KACh channel (KCNJ3 N83H KACh channel): higher affinity for the mutant KACh channel | inhibitory effect on the KCNJ3 N83H KACh channel (KCNJ3 N83H KACh channel): concentration-dependent inhibitory effect | IC50 (KCNJ3 WT KACh channel [1]; wild type, n=13, read-out: IC50 value, inhibition of whole cell current): 230 ± 60 nM | effect on heart rate and bradyarrhythmia [2]: increasing the heart rate and improving bradyarrhythmia | effect on heart rate (KCNJ3 WT zebrafish): appropriate increase in the heart rate without causing excess tachycardia

Tertiapin-Q [reference compound]
effect on sinus arrest / atrioventricular block caused by the N83H mutation [2]: did not improve sinus arrest | inhibitory action on the KCNJ3 WT KACh channel (KCNJ3 WT KACh channel [4]): inhibitory action
